Test results from patent US12263171B2, “7-, 8-, and 10-substituted amino triazolo quinazoline derivatives as adenosine receptor antagonists, pharmaceutical compositions and their use” (Merck Sharp & Dohme LLC, priority 2018, dated 2025).
pIC50: −log10 of the molar value.

Columns and labels:
[1] = target: human A2b adenosine receptor (Homo sapiens (Human), UniProt P29275); assay: A2b radioligand filtration binding assay (tritiated proprietary A2b antagonist, HEK293 membranes); settings: for pIC50: unstarred values: radioligand binding
Experimental: Measurement of A2b Binding Affinity
The reported affinity of the compounds of the invention for the human A2b adenosine receptor was determined experimentally using a radioligand filtration binding assay. This assay measures the amount of binding of a tritiated proprietary A2b receptor antagonist, in the presence and absence of a compound of the invention, to membranes made from HEK293 cells recombinantly expressing the human A2b adenosine receptor (Perkin Elmer, Cat. No. ES-013-C).
The filter plate was incubated for at least 1 hour at 55° C. and allowed to dry. The bottom of the filter plate was then sealed with backing tape. […] The plates were then incubated for at least 20 minutes, and then the amount of radioactivity remaining in each well was determined using a TopCount® (Perkin Elmer) scintillation counter. After normalization to total and non-specific binding, the percent effect at each compound concentration was calculated. The plot of percent effect versus the log of compound concentration was analyzed electronically using a 4-parameter logistic fit based on the Levenberg-Marquardt algorithm to generate IC50 values.

[2] = target: human A2a adenosine receptor (Homo sapiens (Human), UniProt P29274); assay: A2a receptor affinity radioligand binding assay ([3H] SCH58261, membranes from HEK293 or CHO cells); settings: for pIC50: unstarred values: radioligand binding
Experimental: The A2a receptor affinity binding assay measured the amount of binding of a tritiated ligand with high affinity for the A2a adenosine receptor to membranes made from HEK293 or CHO cells recombinantly expressing the human A2a adenosine receptor, in the presence of varying concentrations of a compound of the invention.
Measurement of A2a Binding Affinity Using Radioligand Binding
148 μL, (5 μg/mL) membranes (Perkin Elmer, Cat. No. RBHA2aM4001A) and 2 μL compounds of the invention to be tested (test compound) were transferred to individual wells of a 96-well polypropylene assay plate and incubated for 15 to 30 minutes at room temperature. [^3H] SCH58261 ((7-(2-phenylethyl)-5-amino-2-(2-furyl)-pyrazolo-[4,3-e]-1,2,4-triazolo[1,5-c]pyrimidine)) was diluted in assay buffer (50 mM Tris pH 7.4, 10 mM MgCl2, 0.005% Tween20) to a concentration of 4 nM and 50 μL transferred to each well of the assay plate. […] The assay plate was incubated at room temperature for 60 minutes with agitation. […] Filtering was achieved by aspirating the contents of the assay plate for 5 seconds, then washing and aspirating the contents three times with ice-cooled wash buffer (50 mM Tris-HCl pH 7.4, 150 mM NaCl) and allowing the vacuum manifold to dry the plate for 30 seconds. The filter plate was incubated for at least 1 hour at 55° C. and allowed to dry. The bottom of the filter plate was sealed with backing tape. 40 μL. […] The plate was incubated for at least 20 minutes, and then the amount of radioactivity remaining in each well was determined using a TopCown® (Perkin Elmer) scintillation counter. After normalization to total and non-specific binding, the percent effect at each compound concentration was calculated. The plot of percent effect versus the log of compound concentration was analyzed electronically using a 4-parameter logistic fit based on the Levenberg-Marquardt algorithm to generate IC50 values.

Sequence of human A2b adenosine receptor (P29275 whole entry): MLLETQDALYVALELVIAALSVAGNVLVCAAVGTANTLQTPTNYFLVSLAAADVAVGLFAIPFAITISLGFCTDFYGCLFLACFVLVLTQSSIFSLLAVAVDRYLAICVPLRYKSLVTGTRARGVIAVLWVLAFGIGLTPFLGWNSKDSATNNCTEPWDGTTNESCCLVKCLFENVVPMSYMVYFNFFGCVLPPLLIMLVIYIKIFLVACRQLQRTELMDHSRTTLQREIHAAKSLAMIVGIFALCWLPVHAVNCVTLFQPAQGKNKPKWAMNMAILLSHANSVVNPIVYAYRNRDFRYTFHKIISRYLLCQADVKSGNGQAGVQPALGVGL
Sequence of human A2a adenosine receptor (P29274 whole entry): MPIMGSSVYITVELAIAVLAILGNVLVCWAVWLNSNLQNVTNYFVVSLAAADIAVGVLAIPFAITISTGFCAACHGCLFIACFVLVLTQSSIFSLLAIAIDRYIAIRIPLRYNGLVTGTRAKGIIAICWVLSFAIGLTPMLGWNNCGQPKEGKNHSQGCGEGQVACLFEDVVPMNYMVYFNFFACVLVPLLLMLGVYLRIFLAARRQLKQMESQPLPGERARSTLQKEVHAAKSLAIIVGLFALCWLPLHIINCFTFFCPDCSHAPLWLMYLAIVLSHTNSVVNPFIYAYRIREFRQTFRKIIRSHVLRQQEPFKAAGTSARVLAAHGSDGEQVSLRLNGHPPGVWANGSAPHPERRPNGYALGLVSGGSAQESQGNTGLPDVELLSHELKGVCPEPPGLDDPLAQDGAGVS

| pIC50 [1] | pIC50 [2] | A2B binding % inh. @ 10000 nM ([1]; @ 10000 nM, unstarred) | A2A binding % inh. @ 10000 nM ([2]; @ 10000 nM, unstarred) | SMILES |
| --- | --- | --- | --- | --- |
| 5.15 | 8.24 |  |  | COc1cccc2c1nc(N)n1nc([C@H]3CCC4CCC3N4c3cnn(C)c3)nc21 (mixture of isomers) [Example 130A] |
| 5.45 | 7.99 |  |  | COc1cccc2c1nc(N)n1nc([C@@H]3CCC4CCC3N4c3cnn(C)c3)nc21 (mixture of isomers) [Example 130B] |
| 7.15 | 9.40 |  |  | COc1cccc2c1nc(N)n1nc([C@@H]3CCCN(c4cnn(C5CCOC5)c4)C3)nc21 (single isomer, unassigned) [Example 57A] |
| 7.05 | 9.52 |  |  | COc1cccc2c1nc(N)n1nc([C@@H]3CCCN(c4cnn(C5CCOC5)c4)C3)nc21 (single isomer, unassigned) [Example 57B] |
| 7.46 | 9.70 |  |  | COc1cccc2c1nc(N)n1nc([C@@H]3CCCN(c4cnn(C5CCCC5O)c4)C3)nc21 (single isomer, unassigned) [Example 58B] |
| 8.20 | 9.40 |  |  | COc1cccc2c1nc(N)n1nc([C@@H]3CCCN(c4cnn(C5CCCC5(C)O)c4)C3)nc21 (single isomer, unassigned) [Example 59A] |
| 8.77 | 9.52 |  |  | COc1cccc2c1nc(N)n1nc([C@@H]3CCCN(c4cnn(C5CCCC5(C)O)c4)C3)nc21 (single isomer, unassigned) [Example 59B] |
| 6.55 | 8.74 |  |  | COc1cccc2c1nc(N)n1nc([C@@H]3CCCN(c4cnn(C5CCC5O)c4)C3)nc21 (single isomer, unassigned) [Example 60A] |
| 6.74 | 8.70 |  |  | COc1cccc2c1nc(N)n1nc([C@@H]3CCCN(c4cnn(C5CCC5O)c4)C3)nc21 (single isomer, unassigned) [Example 60B] |
| 7.34 | 9.70 |  |  | COc1cccc2c1nc(N)n1nc([C@@H]3CCCN(c4cnn(C(C)C(C)(C)O)c4)C3)nc21 (single isomer, unassigned) [Example 61A] |
| 7.08 | 9.40 |  |  | COc1cccc2c1nc(N)n1nc([C@@H]3CCCN(c4cnn(C(C)C(C)(C)O)c4)C3)nc21 (single isomer, unassigned) [Example 61B] |
| 6.77 | 8.89 |  |  | COc1cccc2c1nc(N)n1nc([C@@H]3CCC[C@](O)(c4cnn(CC(C)(C)O)c4)C3)nc21 (single isomer, unassigned) [Example 135, (1R, 3R or 1S,3S)-3-(5-amino-7-methoxy-[1,2,4]triazolo[1,5-c]quinazolin-2-yl)-1-(1-(2-hydroxy-2-methylpropyl)-1H-pyrazol-4-yl)cyclohexan-1-ol] |
| 6.80 | 8.92 |  |  | COc1cccc2c1nc(N)n1nc([C@H]3CCC[C@@H](c4cnn(C)c4)C3)nc21 (single isomer, unassigned) [Example 136C] |
| 5.06 | 6.92 |  |  | COc1cccc2c1nc(N)n1nc([C@@H]3CCC[C@H](c4cnn(CC(C)(C)O)c4)C3)nc21 (single isomer, unassigned) [Example 137, 1-(4-((1S,3R or 1R,3S)-3-(5-amino-7-methoxy-[1,2,4]triazolo[1,5-c]quinazolin-2-yl)cyclohexyl)-1H-pyrazol-1-yl)-2-methylpropan-2-ol] |
| 6.37 | 8.47 |  |  | COc1cccc2c1nc(N)n1nc(C3CCCC(c4cnn(CC(C)(C)O)c4)C3)nc21 (single isomer, unassigned) [Example 138] |
| 7.92 | 9.00 |  |  | COc1cccc2c1nc(N)n1nc(C3CCC(C)N(c4cnn(C5CC5)c4)C3)nc21 (single isomer, unassigned) [Example 141C] |
| 7.79 | 9.30 |  |  | COc1cccc2c1nc(N)n1nc(C3CCC(C)N(c4cnn(CC(C)(C)O)c4)C3)nc21 (single isomer, unassigned) [Example 143D] |
| 8.34 | 9.10 |  |  | COc1cccc2c1nc(N)n1nc(C3CCC(C)N(c4cnn(C(C)(C)CO)c4)C3)nc21 (single isomer, unassigned) [Example 146D] |
| 6.11 | 8.41 |  |  | COc1cccc2c1nc(N)n1nc([C@@H]3CC[C@H](C)N(c4cnn(C(C)C(C)(C)O)c4)C3)nc21 (single isomer, unassigned) [Example 147C] |
| 6.29 | 9.15 |  |  | COc1cccc2c1nc(N)n1nc(C3CN(c4cnn(CC5(O)CCC5)c4)CC(F)(F)C3)nc21 (single isomer, unassigned) [Example 157B, (R or S)-1-((4-(5-(5-amino-7-methoxy-[1,2,4]triazolo[1,5-c]quinazolin-2-yl)-3,3-difluoropiperidin-1-yl)-1H-pyrazol-1-yl)methyl)cyclobutan-1-ol] |
| 6.28 | 9.40 |  |  | COc1cccc2c1nc(N)n1nc(C3CN(c4cn(CC(C)(C)O)nc4C)CC(F)(F)C3)nc21 (single isomer, unassigned) [Example 158B, (R or S)1-(4-(5-(5-amino-7-methoxy-[1,2,4]triazolo[1,5-c]quinazolin-2-yl)-3,3-difluoropiperidin-1-yl)-3-methyl-1H-pyrazol-1-yl)-2-methylpropan-2-ol] |
| 6.10 | 10.00 |  |  | COc1cccc2c1nc(N)n1nc(C3CN(c4cnn(CC(C)(C)O)c4C)CC(F)(F)C3)nc21 (single isomer, unassigned) [Example 159B, (R or S)-1-(4-(5-(5-amino-7-methoxy-[1,2,4]triazolo[1,5-c]quinazolin-2-yl)-3,3-difluoropiperidin-1-yl)-5-methyl-1H-pyrazol-1-yl)-2-methylpropan-2-ol] |
|  |  | 10% inh. @ 10000 nM | 19% inh. @ 10000 nM | Cn1cc(N2CCCC(c3nc4c5cccc(O)c5nc(N)n4n3)C2)cn1 (single isomer, unassigned) [Example 165, (R or S)-5-amino-2-(1-(1-methyl-1H-pyrazol-4-yl)piperidin-3-yl)-[1,2,4]triazolo[1,5-c]quinazolin-7-ol] |
| 6.63 | 7.74 |  |  | COc1ccc2c(nc(N)n3nc(C4CCCN(c5cnn(C)c5)C4)nc23)c1F (single isomer, unassigned) [Example 166, (R or S)-7-fluoro-8-methoxy-2-(1-(1-methyl-1H-pyrazol-4-yl)piperidin-3-yl)-[1,2,4]triazolo[1,5-c]quinazolin-5-amine] |
| 6.93 | 7.85 |  |  | Cc1ccc2c(nc(N)n3nc(C4CCCN(c5cnn(C)c5)C4)nc23)c1C (single isomer, unassigned) [Example 167, (R or S)-7,8-dimethyl-2-(1-(1-methyl-1H-pyrazol-4-yl)piperidin-3-yl)-[1,2,4]triazolo[1,5-c]quinazolin-5-amine] |

| SMILES | pIC50 [1] | pIC50 [2] | A2B binding % inh. @ 10000 nM ([1]; @ 10000 nM, unstarred) | A2A binding % inh. @ 10000 nM ([2]; @ 10000 nM, unstarred) |
| --- | --- | --- | --- | --- |
| COc1cccc2c1nc(N)n1nc(C3CCC[C@@](O)(c4cnn(C)c4)C3)nc21 (mixture of isomers) [Example 134B] | 7.12 | 9.00 |  |  |
| COc1cccc2c1nc(N)n1nc(C3CCC[C@](O)(c4cnn(C)c4)C3)nc21 (single isomer, unassigned) [Example 134A] | 5.11 | 7.21 |  |  |
| CCn1cc(N2C[C@@H](c3nc4c5cccc(OC)c5nc(N)n4n3)CC[C@H]2C)cn1 (single isomer, unassigned) [Example 140A] | 5.26 | 7.18 |  |  |
